Test results: US20250345329A1, “HETEROARYL DERIVATIVE COMPOUND AND USES THEREOF” (VORONOI, INC., priority 2022, published 2025)

Key:
[1] = target: T1, human EGFR (d746-750/T790M/C797S) (Homo sapiens, UniProt P00533, C797S/DEL746-750/T790M); experiment: EGFR C797S enzyme inhibition activity (ADP-Glo kinase assay); format: biochemical; conditions: purified enzyme 3 ng, ATP 5 μM, 25° C., 1 hour, luminescence; read-out: EGFR DTC Enzyme IC50
T1 construct: human EGFR (d746-750/T790M/C797S) (668-end, SignalChem); purchased SignalChem
T1 sequence (P00533 with tags, fused parts or gaps DEL746-750/T790M/C797S): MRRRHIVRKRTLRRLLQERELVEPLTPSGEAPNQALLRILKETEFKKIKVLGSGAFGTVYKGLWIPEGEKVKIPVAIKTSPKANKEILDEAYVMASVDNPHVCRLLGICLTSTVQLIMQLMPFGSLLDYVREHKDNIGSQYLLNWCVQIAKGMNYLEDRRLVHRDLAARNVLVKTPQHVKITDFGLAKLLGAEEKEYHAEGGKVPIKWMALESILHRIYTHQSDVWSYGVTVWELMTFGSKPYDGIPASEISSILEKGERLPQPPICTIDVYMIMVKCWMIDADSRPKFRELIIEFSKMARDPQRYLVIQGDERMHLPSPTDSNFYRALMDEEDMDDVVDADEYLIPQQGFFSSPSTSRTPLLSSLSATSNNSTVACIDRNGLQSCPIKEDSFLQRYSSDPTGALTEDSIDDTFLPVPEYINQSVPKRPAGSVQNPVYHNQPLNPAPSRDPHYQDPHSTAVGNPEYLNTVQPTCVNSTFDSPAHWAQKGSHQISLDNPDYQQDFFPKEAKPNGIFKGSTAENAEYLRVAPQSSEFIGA
Description: <Experimental Example 1> Evaluation of EGFR C797S Enzyme Inhibition Activity
The compounds according to the present invention were reacted together with purified human EGFR (d746-750/T790M/C797S) (668-end, SignalChem) enzyme and a specific substrate and evaluated for enzyme inhibitory activity as described below. The reaction buffer consisted of 40 mM Tris-HCl pH 7.4, 20 mM MgCl2, 0.5 mg/ml BSA, and 50 μM DTT, and all reactions of the test substances were performed in reaction buffers. The compounds were serially diluted in 12 steps from a 10 mM DMSO stock, and the enzyme activity was measured at the final compound concentrations of 10, 3, 1, 0.3, 0.1, 0.03, 0.01, 0.003, 0.001, 0.0003, 0.0001, and 0 μM. In the assay, human EGFR (d746-750/T790M/C797S) (3 ng) enzyme was reacted with purified ATP (5 μM) and enzyme substrate (0.2 μg) at 25° C. for 1 hour, and the enzyme activity was determined using the in vitro ADP-Glo™ kinase assay (Promega). The enzyme activity inhibition was measured via luminescence by reacting the enzyme activity reaction solution, ADP-Glo reaction solution, and enzyme activity detection solution in a 2:2:1 ratio. Based on the luminescence of the enzyme activity of the solvent control group that was not treated with the compound, the degree of the enzyme activity inhibition depending on the treatment concentration of each compound was calculated, wherein the concentration of each compound that inhibited the enzyme activity by 50% was determined as the IC50 (nM) value, which was obtained using GraphPad Prism 8.4.3 (GraphPad software Inc., San Diego).

[2] = test system: Ba/F3 expressing EGFR Del19/T790M/C797S mutations; experiment: Inhibitory activity on proliferation of Ba/F3 cell overexpressing EGFR C797S (Cell Titer-Glo); format: cell-based; conditions: Mus musculus, BaF3; 72 hours treatment, cell growth rate vs control; read-out: Ba/F3 (EGFR DTC) GI50
Description: <Experimental Example 2> Evaluation of Inhibitory Activity on Proliferation of Ba/F3 Cell Overexpressing EGFR C797S
The following experiments were performed to evaluate the inhibitory activity of the compounds according to the present invention on the proliferation of Ba/F3 expressing EGFR Del19/T790M/C797S mutations.
Ba/F3 cells were cultured in RPMI-1640 medium supplemented with 10% fetal bovine serum (FBS), and 3000 cells were seeded into each well of a white clear bottom 96 well plate (Corning) 24 hours prior to compound treatment. The compounds were diluted in dimethyl sulfoxide (3-fold dilution, total of 12 concentrations) and injected at 1 μl each so that the final concentration was […] to 5 μM. After 72 hours post treatment with compounds, living cells were reacted in a 37° C., CO2 incubator for […], followed by 10 minutes at room temperature using Cell Titer-Glo luminescent cell-viability reagent (Promega), and the luminescence intensity thereof was measured using a reader (SynergyNeo2, Biotek). The result values were calculated as a cell growth rate (%) compared to the control group. GI50 values were calculated using the GraphPad Prism version 8.4.3 (GraphPad software Inc., San Diego) program.

IC50 [1]	GI50 [2]	SMILES
< 50 nM	500 to 5000 nM	CO[C@H]1CCN(c2nccc(Nc3cc(NC(C)C)c(C(=O)Nc4cccc(N5CCN(C)CC5)c4)cn3)n2)C[C@H]1F (relative stereo) [Example 41, 6-((2-(cis-3-fluoro-4-methoxypiperidin-1-yl)pyrimidin-4-yl)amino)-4-(isopropylamino)-N-(3-(4-methylpiperaizn-1-yl)phenyl)nicotinamide]
< 50 nM	500 to 5000 nM	CO[C@H]1CCN(c2nccc(Nc3cc(NC(C)C)c(C(=O)Nc4cc(N5CCN(C)CC5)cc(C(C)(C)C#N)c4)cn3)n2)C[C@H]1F (relative stereo) [Example 42, N-(3-(2-cyanopropan-2-yl)-5-(4-methylpiperazin-1-yl)phenyl)-6-((2-(cis-3-fluoro-4-methoxypiperidin-1-yl)pyrimidin-4-yl)amino)-4-(isopropylamino)nico-tinamide]
50 to 500 nM	500 to 5000 nM	CO[C@H]1CCN(c2nccc(Nc3cc(NC(C)C)c(C(=O)NCCc4ccccc4)cn3)n2)C[C@H]1F (relative stereo) [Example 96, 6-((2-(cis-3-fluoro-4-methoxypiperidin-1-yl)pyrimidin-4-yl)amino)-4-(isopropylamino)-N-phenethylnicotinamide]
< 50 nM	500 to 5000 nM	COC(=O)CCNC(=O)c1cnc(Nc2ccnc(N3CC[C@H](OC)[C@H](F)C3)n2)cc1NC(C)C (relative stereo) [Example 97, methyl 3-(6-((2-(cis-3-fluoro-4-methoxypiperidin-1-yl)pyrimidin-4-yl)amino)-4-(isopropylamino)nico-tinamido)propanoate]
< 50 nM	< 500 nM	CO[C@H]1CCN(c2nccc(Nc3cc(NC(C)C)c(C(=O)NCCC(F)(F)F)cn3)n2)C[C@H]1F (relative stereo) [Example 98, 6-((2-(cis-3-fluoro-4-methoxypiperidin-1-yl)pyrimidin-4-yl)amino)-4-(isopropylamino)-N-(3,3,3-trifluoropropyl)nico-tinamide]
< 50 nM	–	C[C@@H]1CCOc2c(cnn2C)-c2nccc(n2)Nc2cc(c(C(=O)NCC#N)cn2)N1 [Example 84, (R)-N-(cyanomethyl)-1^1,6-dimethyl-1^1H-9-oxa-3,5-diaza-2(2,4)-pyrimidina-4(2,4)-pyridina-1(4,5)-pyrazolacyclo-nonaphane-4^5-carboxamide]
< 50 nM	–	CC(C)Nc1cc(Nc2ccnc(-c3cnn(S(=O)(=O)C4CC4)c3)n2)ncc1NC(=O)Cc1ccc(C#N)cc1 [Example 85, 2-(4-cyanophenyl)-N-(6-((2-(1-(cyclopropylsulfonyl)-1H-pyrazol-4-yl)pyrimidin-4-yl)amino)-4-(isopropylamin)pyri-din-3-yl)acetamide]
50 to 500 nM	–	C[C@H]1CCOc2c(cnn2C)-c2nccc(n2)Nc2cc(c(C(=O)Nc3cccc(C(F)(F)F)c3)cn2)N1 [Example 101, (S)-1^1,6-dimethyl-N-(3-(trifluoromethyl)phe-nyl)-1^1H-9-oxa-3,5-diaza-2(2,4)-pyrimidina-4(2,4)-pyridina-1(4,5)-pyrazolacyclo-nonaphane-4^5-carboxamide]
< 50 nM	–	C[C@H]1CCOc2c(cnn2C)-c2nccc(n2)Nc2cc(c(C(=O)O)cn2)N1 [Example 117, (S)-1^1,6-dimethyl-1^1H-9-oxa-3,5-diaza-2(2,4)-pyrimidina-4(2,4)-pyridina-1(4,5)-pyrazolacyclo-nonaphane-4^5-carboxylic acid]

More lines, now with the values behind:

SMILES	IC50 [1]	GI50 [2]
CO[C@H]1CCN(c2nccc(Nc3cc(NC4CCCC4)c(C(=O)N4CC(CS(C)(=O)=O)C4)cn3)n2)C[C@H]1F (relative stereo) [Example 13, (4-(cyclopentylamino)-6-((2-(cis-3-fluoro-4-methoxypiperidin-1-yl)pyrimidin-4-yl)amino)pyridin-3-yl)(3-((methylsulfonyl)meth-yl)azetidin-1-yl)methanone]	50 to 500 nM	500 to 5000 nM
CO[C@H]1CCN(c2nccc(Nc3cc(NC4CCNC4)c(C(=O)N4CC(CS(C)(=O)=O)C4)cn3)n2)C[C@H]1F (relative stereo) [Example 15, (6-((2-(cis-3-fluoro-4-methoxypiperidin-1-yl)pyrimidin-4-yl)amino)-4-(pyrrolidin-3-ylamino)pyridin-3-yl)(3-((methylsulfonyl)meth-yl)azetidin-1-yl)methanone]	50 to 500 nM	500 to 5000 nM
CO[C@H]1CCN(c2nccc(Nc3cc(NC(C)C)c(C(=O)N4CC(C#N)C4)cn3)n2)C[C@H]1F (relative stereo) [Example 17, 1-(6-((2-(cis-3-fluoro-4-methoxypiperidin-1-yl)pyrimidin-4-yl)amino)-4-(isopropylamino)nico-tinoyl)azetidine-3-carbonitrile]	< 50 nM	500 to 5000 nM
CC(C)Nc1cc(Nc2ccnc(-c3cnn(S(=O)(=O)C4CC4)c3)n2)ncc1C(=O)N1CC(CS(C)(=O)=O)C1 [Example 1, (6-((2-(1-(cyclopropylsulfonyl)-1H-pyrazol-4-yl)pyrimidin-4-yl)amino)-4-(isopropylamin)pyri-din-3-yl)(3-((methylsulfonyl)meth-yl)azetidin-1-yl)methanone]	< 50 nM	500 to 5000 nM
CS(=O)(=O)CC1CN(C(=O)c2cnc(Nc3ccnc(-c4cnn(S(=O)(=O)C5CC5)c4)n3)cc2NC2CCCC2)C1 [Example 6, (4-(cyclopentylamino)-6-((2-(1-(cyclopropylsulfonyl)-1H-pyrazol-4-yl)pyrimidin-4-yl)amino)pyridin-3-yl)(3-((methylsulfonyl)meth-yl)azetidin-1-yl)methanone]	< 50 nM	500 to 5000 nM
CS(=O)(=O)CC1CN(C(=O)c2cnc(Nc3ccnc(-c4cnn(S(=O)(=O)C5CC5)c4)n3)cc2NC2CCOC2)C1 (stereo not drawn) [Example 7, (6-((2-(1-(cyclopropylsulfonyl)-1H-pyrazol-4-yl)pyrimidin-4-yl)amino)-4-((tetrahydrofuran-3-yl)amino)pyridin-3-yl)(3-((methylsulfonyl)meth-yl)azetidin-1-yl)methanone]	< 50 nM	500 to 5000 nM
CC(C)Nc1cc(Nc2ccnc(-c3cnn(S(=O)(=O)C4CC4)c3)n2)ncc1C(=O)N1CC(C#N)C1 [Example 9, 1-(6-((2-(1-(cyclopropylsulfonyl)-1H-pyrazol-4-yl)pyrimidin-4-yl)amino)-4-(isopropylamino)nico-tinoyl)azetidine-3-carbonitrile]	< 50 nM	500 to 5000 nM
CC(C)Nc1cc(Nc2ccnc(N3CCOCC3)n2)ncc1C(=O)N1CC(CS(C)(=O)=O)C1 [Example 10, (4-(isopropylamino)-6-((2-morpholinopyrimidin-4-yl)amino)pyridin-3-yl)(3-((methylsulfonyl)meth-yl)azetidin-1-yl)methanone]	< 50 nM	500 to 5000 nM
CC(C)Nc1cc(Nc2ccnc(-c3cnn(S(=O)(=O)C4CC4)c3)n2)ncc1C(=O)Nc1cc(CN2CCN(C)CC2)cc(C(F)(F)F)c1 [Example 25, 6-((2-(1-(cyclopropylsulfonyl)-1H-pyrazol-4-yl)pyrimidin-4-yl)amino)-4-(isopropylamino)-N-(3-((4-methylpiperazin-1-yl)methyl)-5-(trifluoromethyl)phe-nyl)nicotinamide]	50 to 500 nM	500 to 5000 nM
CC(C)Nc1cc(Nc2ccnc(-c3cnn(S(=O)(=O)C4CC4)c3)n2)ncc1C(=O)Nc1cnn(S(=O)(=O)C2CC2)c1 [Example 32, N-(1-(cyclopropylsulfonyl)-1H-pyrazol-4-yl)-6-((2-(1-(cyclopropylsulfonyl)-1H-pyrazol-4-yL)pyrimidin-4-yl)amino)-4-(isopropylamino)nico-tinamide]	50 to 500 nM	500 to 5000 nM
CC(C)Nc1cc(Nc2ccnc(-c3cnn(S(=O)(=O)C4CC4)c3)n2)ncc1C(=O)NCCCN(C)C [Example 34, 6-((2-(1-(cyclopropylsulfonyl)-1H-pyrazol-4-yl)pyrimidin-4-yl)amino)-N-(3-(dimethylamino)pro-pyl)-4-(isopropylamino)nico-tinamide]	< 50 nM	500 to 5000 nM
